Data as given in patent US20100292509A1, “VEGFC PRODUCTION PROMOTER” (Shiseido Company, Ltd, priority 2008, published 2010).

Tested on: VEGFC
Details: HaCaT cells; 7% by weight drug solution added at 1/100, 1/1000 or 1/10000 the amount of culture liquid; 48 hours; solvent control assigned 100; FIG. 1
Experimental: HaCaT cells, which are cultured cells derived from human epidermis (German Cancer Research Center, Heidelberg, Germany), were cultured in DMEM containing 10% FBS and seeded into a 24-well plate at 15×10^4 cells per well. After about 24 hours, the medium was replaced with serum-free DMEM followed by culturing for 24 hours. Subsequently, a solution of a candidate drug dissolved in water to a concentration of 7% by weight was added in an amount equal to 1/100, 1/1000 or 1/10000 the amount of culture liquid followed by additional culturing. 48 hours after adding the drug, the culture supernatant was recovered and the amount of VEGFC in the culture supernatant was quantified by ELISA (R&D Systems) in accordance with the protocol. In addition, Alamar Blue (TREK Diagnostic Systems) was added to the cells following recovery of culture supernatant followed by measurement of the number of cells as fluorescence intensity (Ex: 544 nm, Em: 590 nm). The amount of VEGFC expressed per cell was determined by dividing the amount of VEGFC in the culture supernatant by the fluorescence value of the Alamar Blue. A solvent in the form of 70% EtOH was added to the cells instead of drug for use as a control, and the value thereof was assigned a value of 100. In addition, 5% FBS was used as a positive control.

CNC(=O)[C@H]1CC[C@H](CN)CC1.Cl [tranexamic acid methylamide hydrochloride]
VEGFC induction activity (amount of VEGFC expressed per cell): dose-dependent VEGFC induction activity that exceeded that of the control
